Here are results for three molecules from patent US10226048B2 (priority 2014, dated 2019).

Like-named read-outs stand apart in the source and are kept apart here.

Data set [1] can be described thus: Dissociation of PAA in aqueous solution. The note with it: pH 9.5.
Another data set deals with E-Coli. The note with it: 2% HP.
The subject of data set [2] is Staphylococcus Epidermidis. The note with it: 2% HP.
Data set [3] can be described thus: Stability of PAA/NVPA in alkaline solution (ion-exchange chromatography). Type of data set: physicochemical. Conditions: for total PAA decomposed: pH adjusted to 9.3 with sodium hydroxide. The procedure: PAA is not very stable in both acidic and basic solutions (reactions 2 and 3), and is decomposed into acetic acid and oxygen easily. Additionally, PAA is decomposed by metal catalysis and hydrolysis, respectively, in an aqueous solution. […] When sodium hydroxide was used to adjust the pH of PAA solution to 9.3, about 80% of the total PAA were decomposed in 1 minute, with more than 90% being decomposed in 5 minutes. (FIG. 4).
Rapid decomposition of PAA will result in a loss of the disinfecting ability. Thus, it is critical to maintain PAA relatively stable in an alkaline solution. When pH was adjusted partially by sodium carbonate, greater than 90% of the total PAA was maintained in the 10 minutes (FIG. 4). The addition of a metal complexing agent, such as sodium pyrophosphate, etc., may be used to stabilize PAA. It is very important to maintain a relatively long pot-life of NVPA, because some microorganisms are difficult to being killed. Such microorganisms may require at least 3-5-minutes of contact time with the disinfecting detergent. Since NVPA is not very stable, the formulation of the invention is divided to two parts to preserve a long shelf life of PAA. The two parts will be mixed just prior to use. After mixing, PAA will be converted to NVPA and 90% of the total PAA will remain for at least 10 minutes.
FIG. 4. The pH of PAA solution was 9.3. The initial concentrations of PAA and HP were 0.2% (w/w %) and 4% (w/w %), respectively. The pH of the solution was adjusted by sodium hydroxide solution or sodium phosphate solution, and sodium carbonate or a stabilizer such like sodium pyrophosphate was used to stabilize PAA. The quantitative determination of PAA/NVPA was performed by ion-exchange chromatography.

For the molecule `CC(=O)OO` [NVPA, non-volatile peracetate], in data set [1], the “share of initial PAA concentration existing in this state” value turned out to be 95%.
For `OO` [HP, hydrogen peroxide], the Disinfecting efficacy in the data set on E-Coli (contact time 1 minute) is around 90%; in the data set on E-Coli (contact time 2 minutes), around 99%; in data set [2] (contact time 1 minute), around 90%; in data set [2] (contact time 2 minutes), around 99%.
Take `CC(=O)OO` [PAA, Peracetic Acid]: the “total PAA maintained” value in data set [3] (pH adjusted partially by sodium carbonate, in 10 minutes) is given as “greater than 90%”. The “total PAA decomposed” value in data set [3] (in 1 minute) is given as “about 80%”; in data set [3] (in 5 minutes), “more than 90%”. In addition, the “share of initial PAA concentration existing in this state” value in data set [1] is recorded as 5%.
